Measurements from patent publication US8697081B2, “Method of modulating neovascularization” (The Regents of the University of Michigan, priority 2008, dated 2014).

Tests used:
Type in all cases: cell-based
[1] = system: Human umbilical vein endothelial cells; assay: Nucleoli and nuclear speckle morphology (fibrillarin, SC-35 immunostaining); conditions: for fibrillarin or SC-35 distribution: 2-D culture conditions; for patterns of fibrillarin and SC-35 staining: 3-D culture, VEGF/HGF-stimulated
Excerpt: At sites of tissue damage, inflammation or neoplasia, fibrinogen is converted into a 3-D meshwork of fibrin fibrils that serve as a structural support for endothelial cells undergoing neovascularization (Chun et al. 2006. Cell, 125: 577-591; Hiraoka et al. 1998. Cell, 95: 365-377; Schafer and Werner. 2008. Nat. Rev. Mol. Cell Biol., 9: 628-638; Zhou et al. 2008. Genes Dev., 22: 1231-1243). This process can be recapitulated in vitro by embedding serum-supplemented human endothelial cells within a 3-D fibrin gel in the presence of the pro-angiogenic factors, VEGF and HGF. Human umbilical vein endothelial cells were isolated from umbilical cords by perfusion of the umbilical vein with type 3 collagenase (Worthington, Lakewood, N.J.) and cultured in Medium-199 (Invitrogen, Carlsbad, Calif.) with 20% human serum and 50 μg/ml endothelial cell growth supplement (ECGS; BD Biosciences, Franklin Lakes, N.J.). For 3-D culture, endothelial cells were suspended in a solution of thrombin and aprotinin (Sigma, St. Louis, Mo.) and mixed 1:1 with a solution of 6 mg/ml fibrinogen (Calbiochem, Gibbstown, N.J.). Vasculogenesis was triggered by treatment with 100 ng/ml VEGF, 50 ng/ml HGF (Genentech, San Francisco, Calif.). Fibronectin fibrillogenesis was tracked in 3-D by co-culture with human fibronectin (Sigma) labeled with Alexa-594 (Invitrogen).
The morphology of nucleoli and nuclear speckles—which serve, respectively, as ribosomal RNA and pre-mRNA processing sites—was assessed by immunostaining for fibrillarin (a pre-rRNA processing protein) or SC-35 (a pre-mRNA splicing protein) (Tang et al., supra). […] Likewise, nuclear speckle morphology changed from a small number of large foci to more numerous, smaller foci.

[2] = system: Human umbilical vein endothelial cells; assay: Nesprin distribution at the nuclear envelope in 3-D fibrin gels; conditions: VEGF/HGF-stimulated
Excerpt: Physical interactions between cytoskeletal networks and the nucleus are mediated by a family of Klarsicht, ANC-1, Syne homology (KASH) domain-containing proteins. The C-terminal domains of the proteins are embedded within the outer nuclear membrane, where they interact with the inner nuclear membrane via members of the SUN protein family (Crisp et al., 2006. J. Cell Biol., 172: 41-53; Dechat et al., supra; Starr, supra; Stewart et al., supra; Wilhelmsen et al., 2006. J. Cell Biol., 171: 799-810). In turn, SUN proteins span the inner nuclear membrane to establish binding interactions with a scaffold of lamin family members and nuclear pore complexes (Dechat et al., supra; Starr, supra; Stewart et al., supra). To determine whether this interaction plays a role in the nuclear morphology regulation by ECM remodeling, expression of nesprins-1 and 2 (also termed Syne-1 and 2) nesprin-3 was examined in 3-D-embedded endothelial cells. Nesprins-1 and 2 bind F-actin, while nesprin-3 indirectly interacts with intermediate filaments via binding of plectin (Crisp and Burke, 2008. FEBS Lett., 582: 2023-2032; Starr, supra; Stewart et al., supra).

human endothelial cells = assay: Intracellular nanorheology (bead tracking) of 3-D-embedded endothelial cells
Excerpt: Endothelial cells cultured atop highly malleable surfaces retain a spherical configuration, fail to organize stress fibers, and are unable to exert tractional forces—a phenotype identical to that observed in 3-D-embedded, Fn matrix assembly-incompetent endothelial cells. A cell's internal stiffness is a viscoelastic property governed by cytoskeletal assembly, actin crosslinking, and the production of actomyosin-dependent stress. Internal stiffness changes as a function of the perceived stiffness of the surrounding substratum (Solon et al. 2007. Biophys. J., 93(12): 4453-4461). Therefore, the micromechanical properties of 3-D-embedded endothelial cells were monitored via intracellular nanorheology.
Prior to embedding in the 3-D fibrin matrix, endothelial cells were ballistically microinjected with 100 nm polystyrene beads to circumvent the endocytic pathway and subsequent directed motion of the beads. After 3 days of incubation, the beads dispersed in the cytoplasm and their centroids were tracked with high spatial and temporal resolution using fluorescence microscopy. […] Elastic moduli, which quantify the local resistance of the cytoplasm against small random forces acting on the surface of the beads, were derived from MSD curves to quantify cellular mechanical properties.
In the absence of Fn fibrillogenesis, an impaired ability of embedded endothelial cells to generate myosin-dependent forces and increase cytoplasmic stiffness was predicted to affect both Fn unfolding, as well as the ability of the cells to properly register the mechanical properties of the surrounding substratum (Wu et al. 1995. Cell, 83(5): 715-724; Zhong et al. 1998. J. Cell Biol., 141(2): 539-551; Baneyx et al. 2002. Proc. Natl. Acad. Sci. USA, 99(8): 5139-5143; Discher et al. 2005. Science, 310(5751): 1139-1143; Engler, supra; and Yoneda, supra). As such, the rheologic and functional characteristics of endothelial cells were assessed in the presence of the specific myosin ATPase inhibitor, blebbistatin. […]

| Compound | fibrillarin or SC-35 distribution [1] | patterns of fibrillarin and SC-35 staining [1] | nesprin distribution at the nuclear envelope [2] | cytoplasmic stiffness (human endothelial cells; 3-D fibrin gel, 50 μM blebbistatin) | mean square displacement (MSD) of the beads (human endothelial cells; 3-D fibrin matrix, 3 days, relative to control cells) | elastic modulus of the cytoplasm (human endothelial cells; 3-D fibrin matrix, versus control cells, P<0.001) |
| --- | --- | --- | --- | --- | --- | --- |
| CNC(=O)[C@H](Cc1c[nH]c2ccccc12)NC(=O)[C@@H](CC(=O)NO)CC(C)C [GM6001] | did not affect | reversed to that resembling unstimulated endothelial cells | irregular nesprin distributions | – | – | – |
| Cc1ccc2c(c1)C(=O)C1(O)CCN(c3ccccc3)C1=N2 (stereo not drawn) [blebbistatin] | – | – | – | failed to increase | – | – |
| FUD: 49-residue functional upstream domain of Streptococcus pyogenes F1 adhesion protein, SEQ ID NO: 10; fibronectin fibril assembly inhibitor (KDQSPLAGESGETEYITEVYGNQQNPVDIDKKLPNETGFSGNMVETEDT; Streptococcus pyogenes; Functional Upstream Domain (FUD) of F1 adhesion protein) | did not affect | reversed to that resembling unstimulated endothelial cells | irregular nesprin distributions | – | significantly increased | significantly lower |
